From patent publication US20260183274A1, “PDK1 REGULATORY COMPOUND AND COMPOSITION CONTAINING THE SAME” (PROVIBIO CO., LTD., priority 2024, published 2026)

Assays:
[1] = tested on: T cells isolated from mouse spleens; test: T cell proliferation inhibition (CFSE flow cytometry, anti-CD3/anti-CD28 stimulation); type: cell-based; conditions: mouse spleen T cells, 3 days; for inhibition at 0.01 µM / inhibition at 0.1 µM / inhibition at 1 µM / inhibition at 10 µM / inhibition at 30 µM / inhibition at 50 µM: Mus musculus, T-cell, 72 h, read-out: Proliferation inhibition rate (%)
Outline: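 Proliferation inhibition (%) came from flow cytometry of CFSE dilution after 3 days' culture at 37 °C with compound (10 nM, 100 nM, 1, 10, 30, 50 μM; triplicate wells). Cells were magnetically purified T cells from C57BL/6 mouse spleens, 2×10^5 per well, stimulated with 0.5 μg/mL each anti-CD3 and anti-CD28.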

[2] = tested on: Human B Lymphocyte cell line, SU-DHL-8; test: Relative cell viability CCK-8, SU-DHL-8; type: cell-based; conditions: 48 hours, untreated (DMSO) = 100%; for viability at 1 µM / viability at 10 µM / viability at 30 µM / viability at 50 µM: Homo sapiens, SU-DHL-8, 48 h; for viability at 1 µM: read-out: Relative cell viability (%), SU-DHL-8, 1 μM; for viability at 10 µM: read-out: Relative cell viability (%), SU-DHL-8, 10 μM; for viability at 30 µM: read-out: Relative cell viability (%), SU-DHL-8, 30 μM; for viability at 50 µM: read-out: Relative cell viability (%), SU-DHL-8, 50 μM
Outline: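 Cells grown in RPMI-1640 with 10% FBS, treated with compound at several concentrations, then given CCK-8 for 4 h at 37° C. Viability expressed as percent of DMSO-treated cells.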

Row | Compound | inhibition at 0.01 µM ([1]; compound 10 nM) [%] | inhibition at 0.1 µM ([1]; compound 100 nM) [%] | inhibition at 1 µM ([1]; compound 1 μM) [%] | inhibition at 10 µM ([1]; compound 10 μM) [%] | inhibition at 30 µM ([1]; compound 30 μM) [%] | inhibition at 50 µM ([1]; compound 50 μM) [%] | viability at 1 µM [2] [%] | viability at 10 µM [2] [%] | viability at 30 µM [2] [%] | viability at 50 µM [2] [%] | Proliferation inhibition rate (%) ([1]; compound 10 nM) | Proliferation inhibition rate (%) ([1]; compound 100 nM) | Proliferation inhibition rate (%) ([1]; compound 1 μM) | Proliferation inhibition rate (%) ([1]; compound 10 μM) | Proliferation inhibition rate (%) ([1]; compound 30 μM) | Proliferation inhibition rate (%) ([1]; compound 50 μM) | Relative cell viability (%), SU-DHL-8 ([2]; 1 μM) [%] | Relative cell viability (%), SU-DHL-8 ([2]; 10 μM) [%] | Relative cell viability (%), SU-DHL-8 ([2]; 30 μM) [%] | Relative cell viability (%), SU-DHL-8 ([2]; 50 μM) [%] | other results
1 | O=C(NCCCCCCCCCCCCF)c1cccnc1S [Compound 62, N-(12-fluoro-dodecyl)-2-mercapto-nicotinamide] | 0 | 0 | 0 | -18.5 | 100 | 100 | 32.5 | 24.9 | 22.9 | 19.3 |  |  |  |  |  |  |  |  |  |  | 
2 | Nc1ncccc1C(=O)NCCCCCCCCCCN1CCOCC1 [Compound 63, 2-Amino-N-(10-morpholin-4-yl-decyl)-nicotinamide] | -9.84 | 4.85 | 11.2 | 100 | 100 | 100 | 33 | 29.8 | 29.1 | 27.9 |  |  |  |  |  |  |  |  |  |  | 
3 | O=C(NCCCCCCCCCCCCF)c1ncccc1O [Compound 64, 3-Hydroxy-pyridine-2-carboxylic acid (12-fluoro-dodecyl)-amide] | -4.11 | 8.63 | 6.99 | 8.94 | 80.4 | 97 | 23.3 | 14.1 | 6.51 | 6.33 |  |  |  |  |  |  |  |  |  |  | 
4 | Cl.Nc1ncccc1C(=O)NCCCCCCCCCCCCF [Compound 69, 3-(12-fluoro-dodecylcarbamoyl)-pyridin-2-yl-ammonium chloride] |  |  |  |  |  |  |  |  |  |  | −4.04 | −4.66 | 7.14 | 65.36 | 89.94 | 99.20 | 27.80 | 15.16 | 1.05 | 0.77 | 
5 | Nc1ccncc1C(=O)NCCCCCCCCCCCCF [Compound 73, 4-Amino-N-(12-fluoro-dodecyl)-nicotinamide] | -6.44 | 5.75 | 7.4 | 84.8 | 100 | 100 | 11.9 | 5.03 | 0.98 | 0.91 |  |  |  |  |  |  |  |  |  |  | 
6 | Nc1ncccc1C(=O)NCCCCCCCCCCCCn1nnc2cccnc21 [Compound 88, N-(12-(3H-[1,2,3]triazolo[4,5-b]pyridin-3-yl)dodecyl)-2-aminonicotinamide] | -3.22 | 4.29 | 56.3 | 100 | 100 | 100 | 12.6 | 5.98 | 5.06 | 2.23 |  |  |  |  |  |  |  |  |  |  | 
7 | Cl.O=C(NCCCCCCCCCCCCN1CCNCC1)c1ccc(-c2ccccc2)o1 [Compound 90, 5-Phenyl-N-(12-(piperazin-1-yl)dodecyl) furan-2-carboxamide hydrochloride] |  |  |  |  |  |  |  |  |  |  | −8.27 | −2.03 | 66.18 | 100.00 | 100.00 | 100.00 | 7.19 | 5.94 | 2.48 | 1.94 | 
8 | CN1CCN(CCCCCCCCCCCCNC(=O)c2ccc3[nH]cnc3c2)CC1 [Compound 91, N-(12-(4-methylpiperazin-1-yl)dodecyl)-1H-benzo[d]imidazole-5-carboxamide] | -14.6 | 100 | 100 | 100 | 100 | 100 | 3.93 | 3.12 | 1.84 | 1.59 |  |  |  |  |  |  |  |  |  |  | 
9 | CN1CCN(CCCCCCCCCCCCNC(=O)c2cccnc2F)CC1 [Compound 121, 2-fluoro-N-(12-(4-methylpiperazin-1-yl)dodecyl) nicotinamide] |  |  |  |  |  |  |  |  |  |  | 0.00 | 0.00 | 0.00 | 30.00 | 100.00 | 100.00 | 34.89 | 28.99 | 29.04 | 31.11 | 
10 | Nc1ncccc1C(=O)NCCCCCCCCCCCCN1CC(F)(F)C1 [Compound 122, 2-Amino-N-(12-(3,3-difluoroazetidin-1-yl)dodecyl) nicotinamide] |  |  |  |  |  |  |  |  |  |  | 0.00 | 0.00 | 80.00 | 100.00 | 100.00 | 100.00 | 31.84 | 31.91 | 32.93 | 35.70 | 
11 | Nc1ncccc1C(=O)NCCCCCCCCCCCCn1ncc2ccc(Cl)nc21 [Compound 123, 2-Amino-N-(12-(6-chloro-1H-pyrazolo[3,4-b]pyridin-1-yl)dodecyl)nicotinamide] | -2.54 | 4.78 | 48.4 | 100 | 100 | 100 | 42.2 | 42.2 | 44.6 | 48.8 |  |  |  |  |  |  |  |  |  |  | 
12 | CN1CCN(C2CCN(CCCCCCCCCCCCNC(=O)c3cccnc3N)CC2)CC1 [Compound 124, 2-Amino-N-(12-(4-(4-methylpiperazin-1-yl)piperidin-1-yl)dodecyl)nicotinamide] | 0 | 20 | 30 | 100 | 100 | 100 | 30.4 | 30.7 | 32.1 | 31.7 |  |  |  |  |  |  |  |  |  |  | 
13 | COc1cc2c(cc1OC)CN(CCCCCCCCCCCCNC(=O)c1cccnc1N)CC2 [Compound 125, 2-Amino-N-(12-(6,7-dimethoxy-3,4-dihydroisoquinolin-2 (1H)-yl)dodecyl)nicotinamide] | -4.48 | 100 | 100 | 100 | 100 | 100 | 42 | 42.6 | 42 | 42.7 |  |  |  |  |  |  |  |  |  |  | 
14 | COC1CCN(CCCCCCCCCCCCNC(=O)c2cccnc2N)C1 (stereo not drawn) [Compound 126, 2-amino-N-(12-(3-methoxypyrrolidin-1-yl)dodecyl) nicotinamide] |  |  |  |  |  |  |  |  |  |  |  | 100.00 | 100.00 | 100.00 | 100.00 | 100.00 |  |  |  |  | Proliferation inhibition rate (%) ([1]; compound 10 nM, listed as K-PB-48, 0.01 µM): 0.00%; Relative cell viability (%), SU-DHL-8 ([2]; 1 μM, listed as K-PB-48, 1 µM): 33.03%; Relative cell viability (%), SU-DHL-8 ([2]; 10 μM, listed as K-PB-48, 10 µM): 31.98%; Relative cell viability (%), SU-DHL-8 ([2]; 30 μM, listed as K-PB-48, 30 µM): 32.32%; Relative cell viability (%), SU-DHL-8 ([2]; 50 μM, listed as K-PB-48, 50 µM): 30.44%
15 | Nc1ncccc1C(=O)NCCCCCCCCCCCCN1CC=CC1 [Compound 129, 2-amino-N-(12-(2,5-dihydro-1H-pyrrol-1-yl)dodecyl) nicotinamide] |  |  |  |  |  |  |  |  |  |  | 0.00 | 90.00 | 100.00 | 100.00 | 100.00 | 100.00 | 34.26 | 33.99 | 35.05 | 34.27 | 
